This note sets out measurements from ChEMBL document CHEMBL5678818, “Discovery of potent SOS1 inhibitors that block RAS activation via disruption of the RAS-SOS1 interaction” (Proc Natl Acad Sci U S A, 2019).

The target of assay [1] is Death-associated protein kinase 1 (Homo sapiens) (UniProt P53355). Kind of assay: Inhibition of DAPK1 (unknown origin) assessed as residual activity at 100 nM by KINOMEscan analysis relative to control.
Assay [2] deals with T1, Homeodomain-interacting protein kinase 4 (Homo sapiens) (UniProt Q8NE63).
T1 sequence (whole entry): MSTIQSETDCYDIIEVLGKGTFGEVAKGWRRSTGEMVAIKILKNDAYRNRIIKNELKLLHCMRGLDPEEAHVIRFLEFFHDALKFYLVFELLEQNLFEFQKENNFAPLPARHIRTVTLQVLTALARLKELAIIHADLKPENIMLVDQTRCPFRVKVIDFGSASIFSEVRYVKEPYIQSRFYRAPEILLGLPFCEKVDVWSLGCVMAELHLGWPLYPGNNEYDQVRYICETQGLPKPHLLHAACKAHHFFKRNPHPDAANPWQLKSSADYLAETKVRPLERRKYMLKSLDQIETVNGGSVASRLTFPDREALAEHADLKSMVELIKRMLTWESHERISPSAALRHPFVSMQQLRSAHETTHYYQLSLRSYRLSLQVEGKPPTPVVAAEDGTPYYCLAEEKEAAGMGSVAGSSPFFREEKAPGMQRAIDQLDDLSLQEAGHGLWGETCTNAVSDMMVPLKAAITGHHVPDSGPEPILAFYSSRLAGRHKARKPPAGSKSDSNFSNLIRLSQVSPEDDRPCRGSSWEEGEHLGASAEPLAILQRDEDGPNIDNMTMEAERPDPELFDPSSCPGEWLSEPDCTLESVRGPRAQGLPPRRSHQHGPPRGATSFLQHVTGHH
Description: Inhibition of HIPK4 (unknown origin) assessed as residual activity at 100 nM by KINOMEscan analysis relative to control.

Assay [3] deals with Hepatocyte growth factor receptor (Homo sapiens) (UniProt P08581). Kind of assay: Inhibition of MET (unknown origin) assessed as residual activity at 100 nM by KINOMEscan analysis relative to control.
In assay [4] the test system is Hepatocyte growth factor receptor (Homo sapiens), P08581 [Y1235D]. Description: Inhibition of MET Y1235D mutant (unknown origin) assessed as residual activity at 100 nM by KINOMEscan analysis relative to control.
The target in assay [5] is Serine/threonine-protein kinase Nek6 (Homo sapiens) (UniProt Q9HC98). Description: Inhibition of NEK6 (unknown origin) assessed as residual activity at 100 nM by KINOMEscan analysis relative to control.
Assay [6] has as its target T2, Serine/threonine-protein kinase Nek9 (Homo sapiens) (UniProt Q8TD19).
T2 sequence (whole entry): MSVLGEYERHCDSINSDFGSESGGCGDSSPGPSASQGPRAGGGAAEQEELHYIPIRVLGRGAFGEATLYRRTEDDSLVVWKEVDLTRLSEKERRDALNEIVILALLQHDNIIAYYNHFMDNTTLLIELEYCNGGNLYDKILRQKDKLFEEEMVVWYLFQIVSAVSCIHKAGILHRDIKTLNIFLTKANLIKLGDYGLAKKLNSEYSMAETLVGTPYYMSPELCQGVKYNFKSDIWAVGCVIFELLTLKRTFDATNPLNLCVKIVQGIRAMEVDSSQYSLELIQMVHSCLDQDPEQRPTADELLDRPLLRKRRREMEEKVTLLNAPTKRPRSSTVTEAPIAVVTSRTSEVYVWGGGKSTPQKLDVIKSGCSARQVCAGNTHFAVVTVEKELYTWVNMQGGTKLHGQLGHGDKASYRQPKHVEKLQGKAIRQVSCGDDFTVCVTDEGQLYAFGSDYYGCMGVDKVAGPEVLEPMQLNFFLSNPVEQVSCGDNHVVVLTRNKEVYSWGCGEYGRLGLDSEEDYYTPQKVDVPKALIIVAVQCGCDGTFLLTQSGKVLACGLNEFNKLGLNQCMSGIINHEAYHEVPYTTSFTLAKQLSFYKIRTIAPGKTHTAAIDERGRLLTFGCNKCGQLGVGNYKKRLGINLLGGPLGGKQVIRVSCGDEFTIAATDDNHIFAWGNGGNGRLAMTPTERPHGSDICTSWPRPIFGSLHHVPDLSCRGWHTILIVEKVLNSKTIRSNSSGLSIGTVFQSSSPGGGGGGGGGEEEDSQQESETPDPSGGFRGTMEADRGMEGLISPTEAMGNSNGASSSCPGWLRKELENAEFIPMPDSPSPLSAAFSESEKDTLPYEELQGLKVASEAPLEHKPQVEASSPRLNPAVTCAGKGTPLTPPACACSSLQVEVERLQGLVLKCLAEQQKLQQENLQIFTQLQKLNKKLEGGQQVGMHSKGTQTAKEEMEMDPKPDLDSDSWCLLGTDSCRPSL
Description: Inhibition of NEK9 (unknown origin) assessed as residual activity at 100 nM by KINOMEscan analysis relative to control.

The subject of assay [7] is Proto-oncogene tyrosine-protein kinase receptor Ret (Homo sapiens), P07949 [V804M]. Kind of assay: Inhibition of RET V804M mutant (unknown origin) assessed as residual activity at 100 nM by KINOMEscan analysis relative to control.
For assay [8], the target named is T3, Tyrosine-protein kinase ZAP-70 (Homo sapiens) (UniProt P43403).
T3 sequence (whole entry): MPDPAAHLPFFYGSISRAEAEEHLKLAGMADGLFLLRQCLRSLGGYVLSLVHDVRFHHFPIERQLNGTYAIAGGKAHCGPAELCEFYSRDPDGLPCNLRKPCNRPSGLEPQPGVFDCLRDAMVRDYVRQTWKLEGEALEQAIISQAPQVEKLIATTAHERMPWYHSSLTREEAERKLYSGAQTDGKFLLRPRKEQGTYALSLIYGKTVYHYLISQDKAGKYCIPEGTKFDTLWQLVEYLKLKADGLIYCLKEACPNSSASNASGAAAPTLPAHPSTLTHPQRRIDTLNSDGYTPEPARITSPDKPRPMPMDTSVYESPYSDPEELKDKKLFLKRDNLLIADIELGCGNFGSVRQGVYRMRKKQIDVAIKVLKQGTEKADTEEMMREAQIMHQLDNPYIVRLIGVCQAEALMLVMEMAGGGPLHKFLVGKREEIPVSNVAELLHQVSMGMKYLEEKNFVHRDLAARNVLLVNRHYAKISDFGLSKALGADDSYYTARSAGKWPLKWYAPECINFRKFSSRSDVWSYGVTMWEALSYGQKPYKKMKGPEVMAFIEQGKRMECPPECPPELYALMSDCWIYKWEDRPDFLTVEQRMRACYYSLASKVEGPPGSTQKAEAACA
Kind of assay: Inhibition of ZAP70 (unknown origin) assessed as residual activity at 100 nM by KINOMEscan analysis relative to control.

Proto-oncogene tyrosine-protein kinase receptor Ret (Homo sapiens), P07949 [V804M], sequence (P07949 whole entry V804M): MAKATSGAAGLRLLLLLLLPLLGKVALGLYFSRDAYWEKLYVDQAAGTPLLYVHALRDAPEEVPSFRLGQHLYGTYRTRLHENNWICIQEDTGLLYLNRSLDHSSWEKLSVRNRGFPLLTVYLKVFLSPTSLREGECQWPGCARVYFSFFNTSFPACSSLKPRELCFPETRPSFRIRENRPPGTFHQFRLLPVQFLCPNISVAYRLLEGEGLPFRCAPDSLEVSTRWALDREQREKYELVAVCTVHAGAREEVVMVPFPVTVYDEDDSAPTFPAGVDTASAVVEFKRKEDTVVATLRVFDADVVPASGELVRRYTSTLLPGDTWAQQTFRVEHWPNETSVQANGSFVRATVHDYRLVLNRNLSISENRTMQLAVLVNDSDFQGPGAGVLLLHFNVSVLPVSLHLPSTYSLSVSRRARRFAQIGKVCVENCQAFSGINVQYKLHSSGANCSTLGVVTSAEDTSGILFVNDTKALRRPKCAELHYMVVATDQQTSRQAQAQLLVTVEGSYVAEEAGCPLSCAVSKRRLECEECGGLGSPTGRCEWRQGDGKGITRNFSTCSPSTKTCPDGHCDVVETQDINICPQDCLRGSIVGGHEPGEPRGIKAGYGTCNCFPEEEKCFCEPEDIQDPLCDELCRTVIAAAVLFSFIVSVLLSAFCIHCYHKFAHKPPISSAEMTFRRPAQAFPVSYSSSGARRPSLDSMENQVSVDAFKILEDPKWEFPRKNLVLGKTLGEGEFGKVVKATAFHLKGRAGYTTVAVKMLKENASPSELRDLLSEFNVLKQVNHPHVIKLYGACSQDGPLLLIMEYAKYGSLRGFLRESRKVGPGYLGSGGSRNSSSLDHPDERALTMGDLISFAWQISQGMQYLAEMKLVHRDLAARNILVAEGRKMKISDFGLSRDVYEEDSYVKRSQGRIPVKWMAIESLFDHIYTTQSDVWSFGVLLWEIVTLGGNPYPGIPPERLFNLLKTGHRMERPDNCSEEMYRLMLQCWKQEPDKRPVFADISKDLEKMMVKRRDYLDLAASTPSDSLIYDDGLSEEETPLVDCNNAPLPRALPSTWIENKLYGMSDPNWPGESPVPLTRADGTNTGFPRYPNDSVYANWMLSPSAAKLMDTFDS
Death-associated protein kinase 1 (Homo sapiens), sequence (P53355 whole entry, looked up): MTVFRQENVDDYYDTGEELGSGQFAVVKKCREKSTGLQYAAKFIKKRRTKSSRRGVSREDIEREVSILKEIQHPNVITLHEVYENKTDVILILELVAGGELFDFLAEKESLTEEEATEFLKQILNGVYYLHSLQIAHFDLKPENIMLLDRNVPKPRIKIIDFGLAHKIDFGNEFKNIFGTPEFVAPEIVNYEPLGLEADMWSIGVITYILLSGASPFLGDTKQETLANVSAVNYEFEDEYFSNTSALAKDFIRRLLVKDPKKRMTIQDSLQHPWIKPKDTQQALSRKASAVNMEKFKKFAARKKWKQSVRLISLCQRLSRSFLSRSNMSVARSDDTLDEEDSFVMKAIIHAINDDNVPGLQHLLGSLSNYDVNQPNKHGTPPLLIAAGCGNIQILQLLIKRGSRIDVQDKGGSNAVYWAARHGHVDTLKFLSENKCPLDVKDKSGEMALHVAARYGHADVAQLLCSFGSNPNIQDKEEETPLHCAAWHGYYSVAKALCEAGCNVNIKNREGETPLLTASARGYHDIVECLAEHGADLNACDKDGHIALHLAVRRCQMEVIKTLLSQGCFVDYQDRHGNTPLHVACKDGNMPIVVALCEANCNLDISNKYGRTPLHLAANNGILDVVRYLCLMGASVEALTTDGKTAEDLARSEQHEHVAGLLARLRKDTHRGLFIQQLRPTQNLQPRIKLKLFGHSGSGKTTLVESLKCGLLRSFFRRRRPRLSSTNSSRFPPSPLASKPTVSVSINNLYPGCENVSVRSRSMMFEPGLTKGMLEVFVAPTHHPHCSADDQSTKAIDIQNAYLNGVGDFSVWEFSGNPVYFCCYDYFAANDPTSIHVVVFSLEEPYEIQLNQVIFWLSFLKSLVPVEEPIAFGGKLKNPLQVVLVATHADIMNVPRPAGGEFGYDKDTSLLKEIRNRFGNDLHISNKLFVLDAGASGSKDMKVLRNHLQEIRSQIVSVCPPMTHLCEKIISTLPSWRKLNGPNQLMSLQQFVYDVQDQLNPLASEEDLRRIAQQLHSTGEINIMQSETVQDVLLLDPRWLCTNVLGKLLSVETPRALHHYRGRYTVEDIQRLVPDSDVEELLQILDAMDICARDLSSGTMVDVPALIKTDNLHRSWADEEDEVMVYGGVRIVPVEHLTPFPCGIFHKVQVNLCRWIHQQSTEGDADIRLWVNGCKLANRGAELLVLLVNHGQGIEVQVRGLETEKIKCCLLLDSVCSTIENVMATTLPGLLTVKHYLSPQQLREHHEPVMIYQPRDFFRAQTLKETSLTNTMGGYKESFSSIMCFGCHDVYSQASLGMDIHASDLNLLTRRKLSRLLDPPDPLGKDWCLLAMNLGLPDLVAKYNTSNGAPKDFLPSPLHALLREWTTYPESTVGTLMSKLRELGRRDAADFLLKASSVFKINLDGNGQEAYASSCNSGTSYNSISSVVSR
Serine/threonine-protein kinase Nek6 (Homo sapiens), sequence (Q9HC98 whole entry): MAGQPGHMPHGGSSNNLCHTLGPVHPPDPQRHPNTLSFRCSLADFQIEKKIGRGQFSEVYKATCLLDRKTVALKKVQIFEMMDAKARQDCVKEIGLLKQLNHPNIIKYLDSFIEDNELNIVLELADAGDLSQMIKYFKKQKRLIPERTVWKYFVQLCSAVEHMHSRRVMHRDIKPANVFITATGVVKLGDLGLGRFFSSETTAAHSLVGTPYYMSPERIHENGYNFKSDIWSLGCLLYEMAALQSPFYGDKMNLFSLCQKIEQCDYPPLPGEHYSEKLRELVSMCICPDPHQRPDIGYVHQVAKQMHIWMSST

For the compound `COc1cc2ncnc(N[C@H](C)c3cccc4ccccc34)c2cc1OC`, the Activity in assay [1] turned out to be 100%; in assay [2], 100%; in assay [3], 100%; in assay [4], 83%; in assay [5] it was 79%; in assay [6] it was 100%. Moreover, the Activity in assay [7] is 100%; in assay [8], 77%.
